For data set [1], the system named is Human keratinocytes (NHEK-Neo Pooled). The experiment in a line: Human keratinocyte growth inhibition assay. Format: cell-based. The conditions noted are these: 48 h, culture for 2 days, Cell Counting Kit-8. The protocol: The measurement of a human keratinocyte growth inhibitory effect was carried out by modifying the method of Schafer et al. (British Journal of Pharmacology, 159, 842 (2011)).
Human keratinocytes (NHEK-Neo Pooled, manufactured by Lonza Group AG) were cultured in KGM-Gold keratinocyte growth medium Bullet Kit (manufactured by Lonza Group AG) and inoculated at 2×10^3 cells/well to a 96-well plate. After overnight culture in a carbon dioxide incubator, a test compound dissolved in DMSO (final DMSO concentration: 0.1%) was added thereto and left standing in a carbon dioxide incubator. After culture for 2 days, the absorbance thereof was measured by using Cell Counting Kit-8 (manufactured by Dojindo Laboratories).
The rate of inhibition of cell growth at each concentration was calculated from the test compound concentration and the absorbance of Cell Counting Kit-8, and the concentration of the test compound necessary for inhibiting 50% of cell growth (GI50 value) was calculated by using EXSUS (version 8.1.0, manufactured by CAC Exicare Corp.).
On the technique in general: Tetrazolium assays rely on reduction of a dye to a coloured formazan, in cell work by metabolically active cells.

Data set [2] relates to mouse collagen-induced arthritis model. The experiment in a line: Swelling suppression test using mouse collagen-induced arthritis model. Format: in vivo. The conditions noted are these: dose of 100 mg/kg, repeated oral administration, male DBA/1J mice. The protocol:
A mouse collagen-induced arthritis model test was carried out by modifying the method of Mihara et al. (British Journal of Pharmacology, 154, 153 (2008)).
Male DBA/1J mice (supplied by Japan SLC, Inc.) were used as laboratory animals. An adjuvant prepared from a type II collagen solution (Collagen Research Center) and Adjuvant Complete Freund (manufactured by Difco Laboratories Ltd.) was intracutaneously administered twice to the bases of the tails of the mice under inhalation anesthesia with isoflurane (manufactured by Wako Pure Chemical Industries, Ltd.) for sensitization to prepare arthritis models.
Also, Adjuvant Complete Freund (manufactured by Difco Laboratories Ltd.) not containing type II collagen was administered by a similar method to obtain a control group. […]
During the test period, the swelling scoring of limbs (score 0: no disease, score 1: swelling and redness or weak swelling in the small joint of only one of the toes and the fingers, score 2: moderate swelling in the small joints of two or more of the toes and the fingers, score 3: strong swelling in the ankle or the forefoot wrist, score 4: overall strong swelling) was carried out to evaluate the drug efficacy of the test compound. When the total score of the solvent-administered group on the final day was defined as 100%, the rate of reduction in score (%) at each dose of the test compound was calculated.

Data set [3] deals with human large intestine cancer cell line (HCT-116) tumor. In words: In vivo tumor growth inhibition test for human large intestine cancer cell line by combined use with chemotherapeutic. The note with it: for Rate of suppression of tumor volume: IV-361 25 mg/kg/day oral, alone.
Procedure: The prepared cell suspension was subcutaneously injected at 0.1 mL/mouse to the right abdomens of female BALB nude mice (supplied by Charles River Laboratories Japan, Inc.).
Individuals whose tumor volume was within the range of 50 to 200 mm^3 were selected and grouped such that the tumor volume was almost equivalent. After the grouping, a test compound or only a solvent was administered in a repeated manner to the mice of each group as follows:
Single-agent administration group:
Control group: solvent (administered once a day)
5-FU, oxaliplatin, and irinotecan were intraperitoneally administered (5 mL/kg).
After a lapse of a predetermined period, the body weights of the mice of each group and the long diameter and short diameter of tumor were measured, and the tumor volume of the test compound-administered group with respect to the tumor volume of the control group was calculated as the rate of suppression of tumor volume (%).
In data set [4] the test system is human large intestine cancer cell line HCT-116. In words: In vitro cell growth inhibitory activity against human large intestine cancer line by combined use with chemotherapeutic. The conditions noted are these: HCT-116, 3 days, IV-361 10 nM. The data set is classed as cell-based. The protocol: A human large intestine cancer cell line HCT-116 (obtained from DS Pharma Biomedical Co., Ltd.) was cultured in a McCoy's 5A medium (manufactured by Thermo Fisher Scientific, Inc.) containing 10% fetal bovine serum (FBS) (manufactured by Thermo Fisher Scientific, Inc.) and 1% penicillin/streptomycin/amphotericin B (manufactured by Thermo Fisher Scientific, Inc.) and inoculated at 0.5 to 2.0×10^3 cells/well to a 96-well plate. The cells were cultured overnight in a carbon dioxide incubator of 37° C. containing 5% carbon dioxide. The medium was replaced with a fresh medium on the next day, and then, a mixed solution of a DMSO solution of a test compound (IV-361, 5-FU or SN-38) with varying concentrations and a cell culture medium (final DMSO concentration: 0.2%) was added thereto. The concentration of the test compound was 10 nM, the concentration of 5-FU (manufactured by Wako Pure Chemical Industries, Ltd.) was 1000 nM, and the concentration of SN-38 (manufactured by Tocris Bioscience) was adjusted to 1 nM to carry out the test. For a control group, a mixed solution of DMSO and a cell culture medium (final DMSO concentration: 0.2%) was used instead of the DMSO solution of the test compound.
After the addition of the DMSO solution of the test compound, the cells were cultured for 3 days in a carbon dioxide incubator. Then, the absorbance (measurement wavelength: 565 nm) of the medium in each group was measured by using In Vitro Toxicology Assay Kit Sulforhodamine B based (manufactured by Sigma-Aldrich Co. LLC.).
The rate of inhibition of growth (%) was calculated according to the expression given below. Specifically, in the case where the difference between the average absorbance before culture (day 0) and the average absorbance after culture in the test compound-administered group is the same as the difference between the average absorbance before culture (day 0) and the average absorbance after culture in the control group, the rate of inhibition of cell growth is 0%. Rate of inhibition of growth=(1−((Average absorbance of the test compound-administered group after culture)−(Average absorbance of the test compound-administered group on day 0))/((Average absorbance of the control group after culture)−(Average absorbance of the control group on day 0)))×100

Results on 5 molecules are retold here after patent US10894798B2, “Substituted dihydropyrrolopyrazole derivative” (UBE INDUSTRIES, LTD., priority 2015, dated 2021).

In general, GI50 refers to the concentration giving 50% growth inhibition. A low value points to greater sensitivity of the cells. What is called inhibition is the drop in the measured response relative to a control, in per cent.

The molecule `Cc1cccc(F)c1NC(=O)N1Cc2c(NC(=O)C3([Si](C)(C)C)CCC3)n[nH]c2C1(C)C` [IV-129, N-(2-Fluoro-6-methylphenyl)-6,6-dimethyl-3-[1-(trimethylsilyl)cyclobutanecarboxamido]-4,6-dihydropyrrolo[3,4-c]pyrazole-5 (1H)-carboxamide] registered a GI50 in data set [1] of at most 500 nM.

In data set [1], `Cc1cccc(Cl)c1NC(=O)N1Cc2c(NC(=O)C3([Si](C)(C)C)CCC3)n[nH]c2C1(C)C` [IV-215, N-(2-Chloro-6-methylphenyl)-6,6-dimethyl-3-[1-(trimethylsilyl)cyclobutanecarboxamido]-4,6-dihydropyrrolo[3,4-c]pyrazole-5 (1H)-carboxamide] returned a GI50 of at most 500 nM.

For the molecule `COc1cccc(Cl)c1NC(=O)N1Cc2c(NC(=O)C3([Si](C)(C)C)CCC3)n[nH]c2C1(C)C` [IV-247, N-(2-Chloro-6-methoxyphenyl)-6,6-dimethyl-3-[1-(trimethylsilyl)cyclobutanecarboxamido]-4,6-dihydropyrrolo[3,4-c]pyrazole-5(1H)-carboxamide], in data set [1], the GI50 was at most 500 nM.

For `Cc1ccc(F)cc1NC(=O)N1Cc2c(NC(=O)C3([Si](C)(C)C)CCC3)n[nH]c2C1(C)C` [IV-361, N-(5-Fluoro-2-methylphenyl)-6,6-dimethyl-3-[1-(trimethylsilyl)cyclobutanecarboxamido]-4,6-dihydropyrrolo[3,4-c]pyrazole-5 (1H)-carboxamide], the “rate of inhibition (reduction in swelling score)” value in data set [2] is on record as at least 50%. In addition, the “rate of suppression of tumor volume in combined use with chemotherapeutic (5-FU, oxaliplatin or irinotecan)” value in data set [3] (25 mg/kg IV-361 oral + 15 mg/kg 5-FU, 3 mg/kg oxaliplatin or 12.5 mg/kg irinotecan i.p., HCT-116 nude mice) is “excellent rate of suppression of tumor volume”. In addition, the “Rate of suppression of tumor volume” value in data set [3] (Table 52) was found to be 46%; in data set [3] (Table 53), 46%; in data set [3] (Table 54), 20%. Moreover, in data set [4] (Homo sapiens, 72 h, single-agent treatment, read-out: Rate of inhibition of growth (%)), the inhibition at 0.01 µM came out at 11%. Besides, in data set [4] (5-FU 1000 nM, SN-38 1 nM), the “cancer cell growth inhibitory effect in combined use with chemotherapeutic (5-FU or SN-38)” value is recorded as “synergistic cancer cell growth inhibitory effect”. For the same molecule, the GI50 in data set [1] is at most 500 nM.

`Cc1ccc(C)c(NC(=O)N2Cc3c(NC(=O)C4([Si](C)(C)C)CCC4)n[nH]c3C2(C)C)c1` [IV-379, N-(2,5-Dimethylphenyl)-6,6-dimethyl-3-[1-(trimethylsilyl)cyclobutanecarboxamido]-4,6-dihydropyrrolo[3,4-c]pyrazole-5(1H)-carboxamide] gave a GI50 in data set [1] of at most 500 nM.
